Measured values reported in patent EP0245669B1, “Pharmaceutical preparation for preventing damage to living cells by free radicals, or for increasing the efficacy of organic sulphur compounds, and process for increasing the life span of isolated organs” (Medopharm Arzneimittelwerk Dr. Zillich GmbH & Co., priority 1986, dated 1987).

Experiments:
Mäuse = experiment: Toxicity of the zinc salts used as radiation protection agents (LD50); type: in vivo
Procedure: In diesem Beispiel wurde die Toxizität der als Strahlenschutzmittel eingesetzten Zinksalze getestet.
Der LD₅₀-Wert betrug für das Zinkaspartat 55 mg/kg Körpergewicht, für das Zinkchlorid 24 mg/kg Körpergewicht und für das Zinksulfat 45 mg/kg Körpergewicht.

weiblichen C3H Mäusen = experiment: Radiation protection: survival of mice after gamma irradiation (cobalt-60) following i.p. pretreatment; type: in vivo, Mäuse; conditions: for Ueberlebensrate nach Bestrahlung mit 9 Gy % / Ueberlebensrate nach Bestrahlung mit 9 Gy Anzahl: 10 min before 9 Gy; for Ueberlebensrate nach Bestrahlung mit 9 Gy Anzahl / Ueberlebensrate nach Bestrahlung mit 10 Gy Anzahl / Ueberlebensrate nach Bestrahlung mit 11 Gy Anzahl: surviving/irradiated mice; for Ueberlebensrate nach Bestrahlung mit 11 Gy % / Ueberlebensrate nach Bestrahlung mit 11 Gy Anzahl: 30 min before 11 Gy
Description: In den nachfolgenden Beispielen wurde die synergistische Wirkung der durch die erfindungsgemässe Verwendung hergestellten pharmazeutischen Präparate mit organische Schwefelverbindungen enthaltenden Präparaten anhand des Strahlenschutzes getestet und es wurde auch die Strahlenschutzwirkung der Zinkionen enthaltenden Präparate mit bisher bekannten Strahlenschutzpräparaten an Mäusen getestet. Die Versuche wurden mit weiblichen C3H Mäusen (GL. Bomholtgard, Ry, Dänemark) durchgeführt, die 20 bis 22 g wogen. Die Mäuse wurden unter Bedingungen gehalten, wo sie so viel Standard-Nagetierfutter (Nafag Pellts) fressen und so viel Leitungswasser trinken können, wie sie wollten. Die Bestrahlung erfolgte mit Gammastrahlen aus einer Kobalt-60 Quelle. Es wurden unterschiedliche Bestrahlungen vorgenommen, und zwar mit 9 Gy, 10 Gy, 11 Gy, 12 Gy, 13 Gy und 14 Gy.
10 Minuten vor der Bestrahlung, 30 Minuten vor der Bestrahlung oder 120 Minuten vor der Bestrahlung wurde ein durch die erfindungsgemässe Verwendung hergestelltes synergistisch wirkendes pharmazeutisches Präparat, bzw. ein entsprechendes, Zinkionen enthaltendes Strahlenschutzpräparat oder ein aus dem Stand der Technik bekanntes Strahlenschutzpräparat zu Vergleichszwecken durch intraperitoneale Injektion verabreicht.
Bei der Gruppe der Mäuse zu Vergleichszwecken, die ohne Verabreichung eines Strahlenschutzpräparates bestrahlt wurden, erfolgte 10 Minuten vor der Bestrahlung die Verabreichung von destilliertem Wasser. Bei diesen unbehandelten Mäusen überlebten nur 50% der Tiere eine Bestrahlung von 8 Gy, d.h. der LD₅₀-Wert betrug 8 Gy.
Nach den Arbeitsweisen der vorangegangenen Beispiele 1 bis 4, wurden weitere Tests mit den genannten weiblichen Mäusen durchgeführt, und zwar unter Verwendung der angeführten Zinksalze. Die bei diesen Tests erzielten Ergebnisse sind in der nachfolgenden Tabelle I zusammengestellt. Für jede der angewandten Bestrahlungsstärken ist in der Rubrik "Anzahl" diejenige Anzahl der Mäuse angeführt, welche die Bestrahlung überlebten, geteilt durch die Gesamtzahl der Mäuse, welche bestrahlt wurden. Ein entsprechender Wert von 1/10 bedeutet also, dass von 10 bestrahlten Mäusen eine überlebt hatte. In der Spalte mit der Bezeichnung "Prozent", ist die Prozent-Ueberlebensrate angeführt. Bei einer überlebenden Maus pro 10 getesteten Mäusen beträgt diese Ueberlebensrate 10 %.
Zu Vergleichszwecken sind in der nachfolgenden Tabelle III die Ueberlebensraten von Mäusen zusammengestellt, die nach dem in Beispiel 5 beschriebenen Verfahren einer Vorbehandlung mit einem bekannten schwefelhaltigen Strahlenschutzmittel unterworfen worden waren. Orientierende Vorversuche hatten gezeigt, dass diese Strahlenschutzmittel bereits ihre Wirkung verloren hatten, wenn sie zwei Stunden vor der Einwirkung der Bestrahlung verabreicht worden waren. Die Bestrahlung wurde, wie aus der Tabelle ersichtlich ist, zwei Minuten nach der Verabreichung, in den meisten Fällen 10 Minuten nach der Verabreichung, aber auch 30 Minuten, bzw. 120 Minuten nach der Verabreichung durchgeführt. Die Werte deuten darauf hin, dass 30 Minuten nach der Verabreichung die Schutzwirkung schon wieder deutlich nachgelassen hat. Für jede Bestrahlungsstärke ist wiederum die Anzahl der Tiere angeführt, die nach 30 Tagen überlebt haben, geteilt durch die Gesamtzahl der Tiere, die behandelt und bestrahlt worden waren.
Anhand dieses Beispiels soll die synergistische Wirkung von Zinkionen und Schwefelverbindungen bezüglich eines Strahlenschutzes erläutert werden. Es wurde wieder in der gleichen Weise gearbeitet, wie in den vorangegangenen Beispielen 1 bis 3, bzw. 5, und es wurde auch die gleiche Art an weiblichen Mäusen getestet. Die Verabreichung der Zinkionen enthaltenden Lösung und der Lösung der Schwefelverbindung erfolgte entweder nacheinander oder gleichzeitig durch intraperitoneale Injektion.
In allen Fällen wurde die Ueberlebensrate 30 Tage nach der Einwirkung der Bestrahlung bestimmt.

[1] = Table II: 10 mg/kg i.p., 30 min before 10 Gy
[2] = Table II: 15 mg/kg i.p., 30 min before 10 Gy
[3] = Table II, Zinksulfat: 15 mg/kg i.p.
[4] = Table II, Zinksulfat: 15 mg/kg i.p., 10 min before 10 Gy
[5] = Table II, Zinksulfat: 30 mg/kg i.p.
[6] = Table II, Zinksulfat: 30 mg/kg i.p., 10 min before 10 Gy
[7] = Table II, Zinksulfat: 22,5 mg/kg i.p.
[8] = Table II, Zinksulfat: 22,5 mg/kg i.p., 10 min before 10 Gy

Compound: [Cl-].[Cl-].[Zn+2] [Zinkchlorid]
- LD₅₀-Wert (Mäuse): 24 mg/kg Körpergewicht
- Ueberlebensrate nach Bestrahlung mit 9 Gy % (weiblichen C3H Mäusen; Table II: 10 mg/kg i.p.): 20%
- Ueberlebensrate nach Bestrahlung mit 9 Gy Anzahl (weiblichen C3H Mäusen; Table II: 10 mg/kg i.p.): 2/10
- Ueberlebensrate nach Bestrahlung mit 10 Gy % (weiblichen C3H Mäusen; [1]): 15%
- Ueberlebensrate nach Bestrahlung mit 10 Gy Anzahl (weiblichen C3H Mäusen; [1]): 3/20
- Ueberlebensrate nach Bestrahlung mit 9 Gy % (weiblichen C3H Mäusen; Table II: 15 mg/kg i.p.): 30%
- Ueberlebensrate nach Bestrahlung mit 9 Gy Anzahl (weiblichen C3H Mäusen; Table II: 15 mg/kg i.p.): 3/30
- Ueberlebensrate nach Bestrahlung mit 10 Gy % (weiblichen C3H Mäusen; [2]): 20%
- Ueberlebensrate nach Bestrahlung mit 10 Gy Anzahl (weiblichen C3H Mäusen; [2]): 4/20
- Ueberlebensrate nach Bestrahlung mit 9 Gy % (weiblichen C3H Mäusen; Table II: 20 mg/kg i.p.): 10%
- Ueberlebensrate nach Bestrahlung mit 9 Gy Anzahl (weiblichen C3H Mäusen; Table II: 20 mg/kg i.p.): 0/10

Compound: Zinksulfat
- LD₅₀-Wert (Mäuse): 45 mg/kg Körpergewicht
- Ueberlebensrate nach Bestrahlung mit 9 Gy % (weiblichen C3H Mäusen; [3]): 0%
- Ueberlebensrate nach Bestrahlung mit 9 Gy Anzahl (weiblichen C3H Mäusen; [3]): 1/10
- Ueberlebensrate nach Bestrahlung mit 10 Gy % (weiblichen C3H Mäusen; [4]): 22%
- Ueberlebensrate nach Bestrahlung mit 10 Gy Anzahl (weiblichen C3H Mäusen; [4]): 2/9
- Ueberlebensrate nach Bestrahlung mit 11 Gy % (weiblichen C3H Mäusen; [3]): 0%
- Ueberlebensrate nach Bestrahlung mit 11 Gy Anzahl (weiblichen C3H Mäusen; [3]): 0/20
- Ueberlebensrate nach Bestrahlung mit 9 Gy Anzahl (weiblichen C3H Mäusen; [5]): 0/10
- Ueberlebensrate nach Bestrahlung mit 10 Gy % (weiblichen C3H Mäusen; [6]): 33%
- Ueberlebensrate nach Bestrahlung mit 10 Gy Anzahl (weiblichen C3H Mäusen; [6]): 3/9
- Ueberlebensrate nach Bestrahlung mit 11 Gy % (weiblichen C3H Mäusen; [5]): 5%
- Ueberlebensrate nach Bestrahlung mit 11 Gy Anzahl (weiblichen C3H Mäusen; [5]): 1/20
- Ueberlebensrate nach Bestrahlung mit 9 Gy % (weiblichen C3H Mäusen; [7]): 80%
- Ueberlebensrate nach Bestrahlung mit 9 Gy Anzahl (weiblichen C3H Mäusen; [7]): 8/10
- Ueberlebensrate nach Bestrahlung mit 10 Gy % (weiblichen C3H Mäusen; [8]): 33%
- Ueberlebensrate nach Bestrahlung mit 10 Gy Anzahl (weiblichen C3H Mäusen; [8]): 3/9
- Ueberlebensrate nach Bestrahlung mit 11 Gy % (weiblichen C3H Mäusen; [7]): 0%
- Ueberlebensrate nach Bestrahlung mit 11 Gy Anzahl (weiblichen C3H Mäusen; [7]): 0/20
